Data reported in patent US4576949A, “Use of 5,6,7,8-tetrahydroquinolines and 5,6-dihydropyrindines as leukotriene and lipoxygenase inhibitors and the novel 3-substituted compounds therein” (The Upjohn Company, priority 1984, dated 1986).

Tested on: LTC/LTD
Experiment: inhibition of leukotriene C and D (LTC/LTD) synthesis in vitro
Format: cell-based
Conditions: for activity at 1 µg / LTC/LTD inhibition, expressed as % of control, at 1.0: 1.0 μg; for activity at 1 µg: read-out: LTC/LTD inhibition, expressed as % of control, at 1.0; for activity at 10 µg: read-out: LTC/LTD inhibition, expressed as % of control, at 10 μg; for activity at 0.1 µg: 0.1 μg, read-out: LTC/LTD inhibition, expressed as % of control, at 0.1
Text: Thus, the following TABLE II provides examples of the biological activity as determined by methods known in the art (see Bach, M. K., et al., 6,9-deepoxy-6,9-phenylimino-Δ-6,8-prostaglandin I1, (U-60,257). A New Inhibitor of Leukotriene C and D Synthesis: In Vitro Studies. Prostaglandins 23, 759-771, 1982.) for the present invention having formula II.
^a Values for inhibition are expressed as % of control.
LTC/LTD is leukotriene C or D.

## COC(=O)C=Cc1cc2c(nc1C)C(=Cc1ccccc1)CCC2 [3-[5,6,7,8-Tetrahydro-2-methyl-8-(phenylmethylene)-3-quinolinyl]-2-propenoic acid methyl ester]
  activity at 1 µg: 99%
10 μg
  activity at 10 µg: 117%

## CC(=O)Oc1ccc(C=C2CCc3cccnc32)cc1 [4-[(5,6-Dihydro-7H-pyrindin-7-ylidene)methyl]phenol acetate]
  activity at 1 µg: 88%
10 μg
  activity at 10 µg: 45%

## CCOC(=O)c1cc2c(nc1C)C(Cc1ccccc1)CCC2 (centres unmarked) [5,6,7,8-Tetrahydro-2-methyl-8-(phenylmethyl)-3-quinolinecarboxylic acid ethyl ester]
  activity at 0.1 µg: 110%

## CCOC(=O)c1cc2c(nc1C)C(=Cc1ccccc1)CCC2 [5,6,7,8-Tetrahydro-2-methyl-8-(phenylmethylene)-3-quinolinecarboxylic acid ethyl ester]
  LTC/LTD inhibition, expressed as % of control, at 1.0: 96 % of control
  activity at 1 µg: 101%

## CCOC(=O)c1cc2c(nc1C)C(CCCCCO)CCC2 (centres unmarked) [5,6,7,8-Tetrahydro-8-(5-hydroxypentyl)-2-methyl-3-quinolinecarboxylic acid ethyl ester]
  LTC/LTD inhibition, expressed as % of control, at 1.0: 140 % of control
  activity at 1 µg: 121%

## CCOC(=O)c1cc2c(nc1C)C(=Cc1ccc(OC(C)=O)cc1)CCC2 [8-[[4-(Acetyloxy)phenyl]methylene]-5,6,7,8-tetrahydro-2-methyl-3-quinolinecarboxylic acid ethyl ester]
  activity at 0.1 µg: 89%
  activity at 1 µg: 78%
10 μg
  activity at 10 µg: 34%

## CCOC(=O)c1cc2c(nc1C)C(CC(=O)CCCO)CCC2 (centres unmarked) [N; CHCO(CH2)3 OH; n 1; R8 CH3; R9 CO2 Et, 5,6,7,8-Tetrahydro-8-(5-hydroxy-2-oxopentyl)-2-methyl-3-quinolinecarboxylicacid ethyl ester]
  activity at 0.1 µg: 19%
  activity at 1 µg: 52%
10 μg
  activity at 10 µg: 41%

## C(=C1CCCc2cccnc21)c1ccccc1 [N; XII wherein M is H; n 1; R8 H; R9 H, 5,6,7,8-Tetrahydro-8-(phenylmethylene)-quinoline]
  activity at 1 µg: 105%
10 μg
  activity at 10 µg: 33%

## CCOC(=O)c1cc2c(nc1C)C(=Cc1ccco1)CCC2 [N; XIV; n 1; R8 CH3; R9 CO2 Et, 8-(2-Furanylmethylene)-5,6,7,8-tetrahydro-2-methyl-3-quinolinecarboxylic acid ethyl ester]
10 μg
  LTC/LTD inhibition, expressed as % of control, at 10 μg: 31 % of control
  activity at 10 µg: 16%

## CCOC(=O)c1cc2c(nc1C)C(CC1CCCO1)CCC2 (centres unmarked) [N; XIX; n 1; R8 CH3; R9 CO2 Et]
  activity at 1 µg: 67%
10 μg
  activity at 10 µg: 52%

## C(=C1CCc2cccnc21)c1cccs1 [N; XV; n 0; R8 H; R9 H, 5,7 -Dihydro-7-(2-thienylmethylene)-5H-1-pyrindine]
  activity at 1 µg: 67%
10 μg
  activity at 10 µg: 15%
